From PubChem BioAssay (NCI)
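Interpolation was linear, between the two tested concentrations surrounding the appropriate level; five concentrations were tested over 48 hours in 96-well plates. GI50 marks 50% less growth. Definition used: TGI = concentration required for complete inhibition of growth.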

Tests used:
Experiment in all cases: NCI anticancer screen, dose series, 48 h
786-0 renal = system: 786-0 renal
A498 renal = system: A498 renal
ACHN renal = system: ACHN renal
BT-549 breast = system: BT-549 breast
CCRF-CEM leukemia = system: CCRF-CEM leukemia
COLO 205 colon = system: COLO 205 colon
DU-145 prostate = system: DU-145 prostate
EKVX NSCLC = system: EKVX NSCLC
HCT-116 colon = system: HCT-116 colon
HCT-15 colon = system: HCT-15 colon
HL-60(TB) leukemia = system: HL-60(TB) leukemia
HOP-62 NSCLC = system: HOP-62 NSCLC
HS 578T breast = system: HS 578T breast
HT29 colon = system: HT29 colon
IGROV1 ovarian = system: IGROV1 ovarian
K-562 leukemia = system: K-562 leukemia
KM12 colon = system: KM12 colon
LOX IMVI melanoma = system: LOX IMVI melanoma
M14 melanoma = system: M14 melanoma
MALME-3M melanoma = system: MALME-3M melanoma
MCF7 breast = system: MCF7 breast
MDA-MB-435 = system: MDA-MB-435
MOLT-4 leukemia = system: MOLT-4 leukemia
NCI-H226 lung = system: NCI-H226 lung
NCI-H23 lung = system: NCI-H23 lung
NCI-H460 lung = system: NCI-H460 lung
NCI/ADR-RES ovarian = system: NCI/ADR-RES ovarian
OVCAR-3 ovarian = system: OVCAR-3 ovarian
OVCAR-5 ovarian = system: OVCAR-5 ovarian
OVCAR-8 ovarian = system: OVCAR-8 ovarian
PC-3 prostate = system: PC-3 prostate
RPMI-8226 leukemia = system: RPMI-8226 leukemia
RXF 393 renal = system: RXF 393 renal
SF-268 CNS = system: SF-268 CNS
SF-295 CNS = system: SF-295 CNS
SF-539 CNS = system: SF-539 CNS
SK-MEL-2 melanoma = system: SK-MEL-2 melanoma
SK-MEL-28 melanoma = system: SK-MEL-28 melanoma
SK-MEL-5 melanoma = system: SK-MEL-5 melanoma
SK-OV-3 ovarian = system: SK-OV-3 ovarian
SNB-19 CNS = system: SNB-19 CNS
SNB-75 CNS = system: SNB-75 CNS
SR leukemia = system: SR leukemia
SW-620 colon = system: SW-620 colon
T-47D breast = system: T-47D breast
TK-10 renal = system: TK-10 renal
UACC-257 melanoma = system: UACC-257 melanoma
UACC-62 melanoma = system: UACC-62 melanoma
UO-31 renal = system: UO-31 renal
A549 NSCLC = system: A549 NSCLC
HCC-2998 colon = system: HCC-2998 colon
HOP-92 NSCLC = system: HOP-92 NSCLC
MDA-MB-231 breast = system: MDA-MB-231 breast
NCI-H522 lung = system: NCI-H522 lung
OVCAR-4 ovarian = system: OVCAR-4 ovarian
SN12C renal = system: SN12C renal
U251 CNS = system: U251 CNS
CAKI-1 renal = system: CAKI-1 renal

Cc1c2c(n(C)c1C)C(=O)C1C(C2=O)C2(C)c3ccccc3C1(C)c1ccccc12 (stereo not given)
TGI (786-0 renal): > 100 µM
TGI (A498 renal): > 100 µM
TGI (ACHN renal): > 100 µM
TGI (BT-549 breast): > 100 µM
TGI (CCRF-CEM leukemia): > 100 µM
TGI (COLO 205 colon): > 100 µM
TGI (DU-145 prostate): > 100 µM
TGI (EKVX NSCLC): > 100 µM
TGI (HCT-116 colon): > 100 µM
TGI (HCT-15 colon): > 100 µM
TGI (HL-60(TB) leukemia): > 100 µM
TGI (HOP-62 NSCLC): > 100 µM
TGI (HS 578T breast): > 100 µM
TGI (HT29 colon): > 100 µM
TGI (IGROV1 ovarian): > 100 µM
TGI (K-562 leukemia): > 100 µM
TGI (KM12 colon): > 100 µM
TGI (LOX IMVI melanoma): > 100 µM
TGI (M14 melanoma): > 100 µM
TGI (MALME-3M melanoma): > 100 µM
TGI (MCF7 breast): > 100 µM
TGI (MDA-MB-435): > 100 µM
TGI (MOLT-4 leukemia): > 100 µM
TGI (NCI-H226 lung): > 100 µM
TGI (NCI-H23 lung): > 100 µM
TGI (NCI-H460 lung): > 100 µM
TGI (NCI/ADR-RES ovarian): > 100 µM
TGI (OVCAR-3 ovarian): > 100 µM
TGI (OVCAR-5 ovarian): > 100 µM
TGI (OVCAR-8 ovarian): > 100 µM
TGI (PC-3 prostate): > 100 µM
TGI (RPMI-8226 leukemia): > 100 µM
TGI (RXF 393 renal): > 100 µM
TGI (SF-268 CNS): > 100 µM
TGI (SF-295 CNS): > 100 µM
TGI (SF-539 CNS): > 100 µM
TGI (SK-MEL-2 melanoma): > 100 µM
TGI (SK-MEL-28 melanoma): > 100 µM
TGI (SK-MEL-5 melanoma): > 100 µM
TGI (SK-OV-3 ovarian): > 100 µM
TGI (SNB-19 CNS): > 100 µM
TGI (SNB-75 CNS): > 100 µM
TGI (SR leukemia): > 100 µM
TGI (SW-620 colon): > 100 µM
TGI (T-47D breast): > 100 µM
TGI (TK-10 renal): > 100 µM
TGI (UACC-257 melanoma): > 100 µM
TGI (UACC-62 melanoma): > 100 µM
TGI (UO-31 renal): > 100 µM

[2H]c1nc(C)nc([2H])c1-c1cc(NC[C@@H](C)c2cccc3c(C(=O)NC)ccnc23)ncn1
GI50 (786-0 renal): > 100 µM
TGI (786-0 renal): > 100 µM
GI50 (A498 renal): > 100 µM
TGI (A498 renal): > 100 µM
GI50 (A549 NSCLC): > 100 µM
TGI (A549 NSCLC): > 100 µM
GI50 (ACHN renal): > 100 µM
TGI (ACHN renal): > 100 µM
GI50 (BT-549 breast): > 100 µM
TGI (BT-549 breast): > 100 µM
GI50 (CCRF-CEM leukemia): 65.1 µM
TGI (CCRF-CEM leukemia): > 100 µM
GI50 (COLO 205 colon): > 100 µM
TGI (COLO 205 colon): > 100 µM
GI50 (DU-145 prostate): > 100 µM
TGI (DU-145 prostate): > 100 µM
GI50 (EKVX NSCLC): > 100 µM
TGI (EKVX NSCLC): > 100 µM
GI50 (HCC-2998 colon): > 100 µM
TGI (HCC-2998 colon): > 100 µM
GI50 (HCT-15 colon): > 100 µM
TGI (HCT-15 colon): > 100 µM
GI50 (HL-60(TB) leukemia): > 100 µM
TGI (HL-60(TB) leukemia): > 100 µM
GI50 (HOP-62 NSCLC): > 100 µM
TGI (HOP-62 NSCLC): > 100 µM
GI50 (HOP-92 NSCLC): > 100 µM
TGI (HOP-92 NSCLC): > 100 µM
GI50 (HS 578T breast): > 100 µM
TGI (HS 578T breast): > 100 µM
GI50 (HT29 colon): > 100 µM
TGI (HT29 colon): > 100 µM
GI50 (IGROV1 ovarian): > 100 µM
TGI (IGROV1 ovarian): > 100 µM
GI50 (K-562 leukemia): 80.6 µM
TGI (K-562 leukemia): > 100 µM
GI50 (KM12 colon): > 100 µM
TGI (KM12 colon): > 100 µM
GI50 (LOX IMVI melanoma): > 100 µM
TGI (LOX IMVI melanoma): > 100 µM
GI50 (M14 melanoma): > 100 µM
TGI (M14 melanoma): > 100 µM
GI50 (MALME-3M melanoma): > 100 µM
TGI (MALME-3M melanoma): > 100 µM
GI50 (MDA-MB-231 breast): > 100 µM
TGI (MDA-MB-231 breast): > 100 µM
GI50 (MDA-MB-435): 32.7 µM
TGI (MDA-MB-435): > 100 µM
GI50 (MOLT-4 leukemia): > 100 µM
TGI (MOLT-4 leukemia): > 100 µM
GI50 (NCI-H226 lung): > 100 µM
TGI (NCI-H226 lung): > 100 µM
GI50 (NCI-H23 lung): > 100 µM
TGI (NCI-H23 lung): > 100 µM
GI50 (NCI-H460 lung): > 100 µM
TGI (NCI-H460 lung): > 100 µM
GI50 (NCI-H522 lung): 46.4 µM
TGI (NCI-H522 lung): > 100 µM
GI50 (NCI/ADR-RES ovarian): > 100 µM
TGI (NCI/ADR-RES ovarian): > 100 µM
GI50 (OVCAR-3 ovarian): > 100 µM
TGI (OVCAR-3 ovarian): > 100 µM
GI50 (OVCAR-4 ovarian): > 100 µM
TGI (OVCAR-4 ovarian): > 100 µM
GI50 (OVCAR-5 ovarian): > 100 µM
TGI (OVCAR-5 ovarian): > 100 µM
GI50 (OVCAR-8 ovarian): > 100 µM
TGI (OVCAR-8 ovarian): > 100 µM
GI50 (PC-3 prostate): > 100 µM
TGI (PC-3 prostate): > 100 µM
GI50 (RPMI-8226 leukemia): 78.5 µM
TGI (RPMI-8226 leukemia): > 100 µM
GI50 (RXF 393 renal): > 100 µM
TGI (RXF 393 renal): > 100 µM
GI50 (SF-268 CNS): > 100 µM
TGI (SF-268 CNS): > 100 µM
GI50 (SF-295 CNS): > 100 µM
TGI (SF-295 CNS): > 100 µM
GI50 (SF-539 CNS): > 100 µM
TGI (SF-539 CNS): > 100 µM
GI50 (SK-MEL-2 melanoma): > 100 µM
TGI (SK-MEL-2 melanoma): > 100 µM
GI50 (SK-MEL-28 melanoma): > 100 µM
TGI (SK-MEL-28 melanoma): > 100 µM
GI50 (SK-MEL-5 melanoma): 60.1 µM
TGI (SK-MEL-5 melanoma): > 100 µM
GI50 (SK-OV-3 ovarian): > 100 µM
TGI (SK-OV-3 ovarian): > 100 µM
GI50 (SN12C renal): > 100 µM
TGI (SN12C renal): > 100 µM
GI50 (SNB-19 CNS): > 100 µM
TGI (SNB-19 CNS): > 100 µM
GI50 (SNB-75 CNS): > 100 µM
TGI (SNB-75 CNS): > 100 µM
GI50 (SR leukemia): 63.1 µM
TGI (SR leukemia): > 100 µM
GI50 (SW-620 colon): > 100 µM
TGI (SW-620 colon): > 100 µM
GI50 (T-47D breast): 29 µM
TGI (T-47D breast): > 100 µM
GI50 (TK-10 renal): > 100 µM
TGI (TK-10 renal): > 100 µM
GI50 (U251 CNS): > 100 µM
TGI (U251 CNS): > 100 µM
GI50 (UACC-257 melanoma): > 100 µM
TGI (UACC-257 melanoma): > 100 µM
GI50 (UACC-62 melanoma): 90.9 µM
TGI (UACC-62 melanoma): > 100 µM
GI50 (UO-31 renal): > 100 µM
TGI (UO-31 renal): > 100 µM

CN(CCCNC(=O)c1nn(-c2ccccc2)c2c1ccc1ccccc12)CCCNC(=O)c1nn(-c2ccccc2)c2c1ccc1ccccc12
TGI (A549 NSCLC): 2.85 µM
TGI (ACHN renal): 3.17 µM
TGI (BT-549 breast): 3.04 µM
TGI (CAKI-1 renal): 2.7 µM
TGI (CCRF-CEM leukemia): 0.628 µM
TGI (COLO 205 colon): 3.63 µM
TGI (DU-145 prostate): 3.92 µM
TGI (EKVX NSCLC): 3.1 µM
TGI (HCT-116 colon): 3.13 µM
TGI (HCT-15 colon): 3.16 µM
TGI (HL-60(TB) leukemia): 3.07 µM
TGI (HOP-62 NSCLC): 3.69 µM
TGI (HS 578T breast): > 100 µM
TGI (HT29 colon): 3.2 µM
TGI (IGROV1 ovarian): 2.87 µM
TGI (KM12 colon): 3.96 µM
TGI (LOX IMVI melanoma): 2.95 µM
TGI (M14 melanoma): 3.16 µM
TGI (MALME-3M melanoma): 3.47 µM
TGI (MCF7 breast): 3.32 µM
TGI (MDA-MB-435): 2.92 µM
TGI (MOLT-4 leukemia): 3.42 µM
TGI (NCI-H460 lung): 2.97 µM
TGI (NCI-H522 lung): 3.17 µM
TGI (NCI/ADR-RES ovarian): 3.53 µM
TGI (OVCAR-3 ovarian): 2.73 µM
TGI (OVCAR-4 ovarian): 3.02 µM
TGI (OVCAR-5 ovarian): 5.24 µM
TGI (OVCAR-8 ovarian): 3.38 µM
TGI (PC-3 prostate): 2.77 µM
TGI (SF-268 CNS): 3.39 µM
TGI (SF-295 CNS): 3.69 µM
TGI (SF-539 CNS): 3.62 µM
TGI (SK-MEL-2 melanoma): 3.15 µM
TGI (SK-MEL-28 melanoma): 3.01 µM
TGI (SK-OV-3 ovarian): 3.38 µM
TGI (SN12C renal): 3.32 µM
TGI (SNB-19 CNS): 3.29 µM
TGI (SNB-75 CNS): 2.88 µM
TGI (SR leukemia): 2.75 µM
TGI (T-47D breast): 3.78 µM
TGI (TK-10 renal): 3.58 µM
TGI (U251 CNS): 3.01 µM
TGI (UACC-257 melanoma): 3.65 µM
TGI (UACC-62 melanoma): 3.03 µM
TGI (UO-31 renal): 2.91 µM
